# Tests used:
# KL allograft tumor = assay: KL subcutaneous allograft tumor growth in syngeneic wild-type mice; assay type: in vivo; settings: KL allograft implanted subcutaneously in right flank, single agent, I.P. 5 days/week
# Text: FIG. 6. NAMPT inhibition reduced KL lung tumor growth in vivo. A) Lung tumor volume measurements of KL subcutaneous allograft tumors following treatment with indicated drugs. B) Average tumor volumes over time in KL tumors with indicated treatments. Arrow denotes treatment start time. C) Percent change in KL tumor volume after 6 days of treatment with indicated drugs. D) Images of subcutaneous KL tumor allografts at endpoint of treatment experiment. *P<0.05.
# All animal experiments were reviewed and approved by the Institutional Animal Care and Use Committee (IACUC) at NYU Langone Health. For lung tumor growth assays, 10^6 KP and KL syngeneic mouse lung cancer cells were implanted into male C57BL/6 mice at 7 weeks of age via tail vein injection. After 8 weeks, mice were imaged by Mill to assess tumor volume. For drug treatment experiments, 10^6 KLA cells were injected subcutaneously in the right flank of female C57BL/6 mice at 7 weeks of age or injected via tail vein injection. […] Tumor volumes were measured using digital calipers or Mill. Mouse weights were measured weekly to adjust total dosage and assess the effects of drug combinations on mouse health. […]
# PD-L1 = assay: Western blot of PD-L1 in KP cells with SIK or LKB1 knockout treated with NAM; assay type: cell-based, mouse
# Experimental: A) Western blot of indicated proteins in KL or KP cells with SIK or LKB1 knockout and treated with NAM or NAD^+ for 6 days.
# Lung cancer cell lines were cultured in RPMI 1640 (Gibco, Thermo Fisher Scientific) supplemented with 10% fetal bovine serum (FBS, Gibco). The KPC Kras^LA1-G12D p53^−/− (KP) and KLA Kras^LA1-G12D;Lkb1^−/− (KL) murine lung cancer cell lines were generated by dissociation of KP and KL lung tumor nodules to single cell suspensions, seeded on tissue culture plates, and cultured in RPMI 1640 (Gibco, Thermo Fisher Scientific) supplemented with 10% fetal bovine serum (FBS, Gibco). […] All cells were cultured at 37° C. in a humidified incubator at 5% CO2 and verified on a weekly basis to be mycoplasma negative.
Structure (SMILES),tumor growth (KL allograft tumor),"PD-L1 levels (PD-L1; KP cells with SIK or LKB1 KO, NAM treatment for 6 days)","PD-L1 levels (PD-L1; KP cells with wild-type SIK or LKB1, NAM treatment)"
O=C(/C=C/c1cccnc1)NCCCCC1CCN(C(=O)c2ccccc2)CC1 [FK866],reduced lung tumor growth only after 6 days of treatment,–,–
"NC(=O)c1cccnc1 [NAM, nicotinamide]",–,marked reduction in PD-L1 levels,no effect on PD-L1 levels
